Laboratory results as given in ChEMBL document CHEMBL4334539, “Discovery of VU6015929: A Selective Discoidin Domain Receptor 1/2 (DDR1/2) Inhibitor to Explore the Role of DDR1 in Antifibrotic Therapy” (ACS Med Chem Lett, 2020).

Tests used:
[1] = target: T1, Discoidin domain-containing receptor 2 (Homo sapiens, UniProt Q16832); assay: Inhibition of kinase tracer 178 binding to recombinant human His-tagged DDR2 expressed in baculovirus infected Sf9 cells incubated for 1 hr by TR-FRET based LanthaScreen Eu kinase binding assay
T1 sequence (Q16832 whole entry): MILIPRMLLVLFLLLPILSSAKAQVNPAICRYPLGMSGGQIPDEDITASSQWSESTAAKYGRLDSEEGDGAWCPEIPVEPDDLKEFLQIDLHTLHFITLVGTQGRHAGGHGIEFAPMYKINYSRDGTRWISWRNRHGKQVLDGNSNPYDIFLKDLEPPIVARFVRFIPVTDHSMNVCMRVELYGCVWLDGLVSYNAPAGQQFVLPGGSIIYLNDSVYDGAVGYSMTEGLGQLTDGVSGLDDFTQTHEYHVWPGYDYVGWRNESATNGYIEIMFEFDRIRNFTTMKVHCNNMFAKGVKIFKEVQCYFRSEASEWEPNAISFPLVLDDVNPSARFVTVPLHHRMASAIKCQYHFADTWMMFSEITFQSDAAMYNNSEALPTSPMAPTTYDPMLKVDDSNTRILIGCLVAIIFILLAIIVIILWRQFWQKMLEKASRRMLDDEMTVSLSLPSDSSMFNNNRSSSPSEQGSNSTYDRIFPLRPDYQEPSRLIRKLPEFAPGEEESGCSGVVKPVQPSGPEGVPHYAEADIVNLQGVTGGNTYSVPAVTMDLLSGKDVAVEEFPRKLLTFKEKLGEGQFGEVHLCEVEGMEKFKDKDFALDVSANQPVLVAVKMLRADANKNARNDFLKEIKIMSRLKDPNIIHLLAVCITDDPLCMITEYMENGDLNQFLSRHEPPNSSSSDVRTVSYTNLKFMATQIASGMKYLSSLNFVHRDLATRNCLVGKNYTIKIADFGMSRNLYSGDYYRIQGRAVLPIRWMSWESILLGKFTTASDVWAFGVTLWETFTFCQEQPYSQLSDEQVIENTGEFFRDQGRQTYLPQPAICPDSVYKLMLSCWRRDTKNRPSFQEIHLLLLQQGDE

[2] = Metabolic stability in rat liver microsomes assessed as […] at 1 uM incubated for 5 mins followed by NADPH addition and measured upto 45 mins by LC/MS/MS analysis; type: ADME, Microsome; settings: read-out: CLH
[3] = Fraction unbound in rat plasma incubated for 4 hrs by LC/MS/MS analysis; type: ADME, cell-free
[4] = Clearance in Sprague-Dawley rat at 0.5 mg/kg, iv or 3 mg/kg, po measured upto 24 hrs by LC/MS/MS analysis; type: ADME, organism-based; settings: in vivo
[5] = Tmax in Sprague-Dawley rat at 3 mg/kg, po measured upto 24 hrs by LC/MS/MS analysis; type: ADME, organism-based; settings: in vivo
[6] = Half life in Sprague-Dawley rat at 0.5 mg/kg, iv or 3 mg/kg, po measured upto 24 hrs by LC/MS/MS analysis; type: ADME, organism-based; settings: in vivo
[7] = Cytotoxicity against mesangial cells (unknown origin) expressing Hu-DDR1b assessed as reduction in cell viability at 10 uM incubated for 24 hrs by microscopic analysis; type: cell-based
[8] = Volume of distribution at steady state in Sprague-Dawley rat at 0.5 mg/kg, iv or 3 mg/kg, po measured upto 24 hrs by LC/MS/MS analysis; type: ADME, organism-based; settings: in vivo, read-out: Vdss
[9] = Oral bioavailability in Sprague-Dawley rat at 3 mg/kg measured upto 24 hrs by LC/MS/MS analysis; type: ADME, organism-based; settings: in vivo
[10] = target: Epithelial discoidin domain-containing receptor 1 (Homo sapiens, UniProt Q08345); assay: Inhibition of FLAG-tagged DDR1 in human HEK293 cells assessed as reduction in collagen-1-induced DDR1 phosphorylation incubated for 18 hrs by ELISA
Sequence of Epithelial discoidin domain-containing receptor 1 (Q08345 whole entry, the tested form may be a part): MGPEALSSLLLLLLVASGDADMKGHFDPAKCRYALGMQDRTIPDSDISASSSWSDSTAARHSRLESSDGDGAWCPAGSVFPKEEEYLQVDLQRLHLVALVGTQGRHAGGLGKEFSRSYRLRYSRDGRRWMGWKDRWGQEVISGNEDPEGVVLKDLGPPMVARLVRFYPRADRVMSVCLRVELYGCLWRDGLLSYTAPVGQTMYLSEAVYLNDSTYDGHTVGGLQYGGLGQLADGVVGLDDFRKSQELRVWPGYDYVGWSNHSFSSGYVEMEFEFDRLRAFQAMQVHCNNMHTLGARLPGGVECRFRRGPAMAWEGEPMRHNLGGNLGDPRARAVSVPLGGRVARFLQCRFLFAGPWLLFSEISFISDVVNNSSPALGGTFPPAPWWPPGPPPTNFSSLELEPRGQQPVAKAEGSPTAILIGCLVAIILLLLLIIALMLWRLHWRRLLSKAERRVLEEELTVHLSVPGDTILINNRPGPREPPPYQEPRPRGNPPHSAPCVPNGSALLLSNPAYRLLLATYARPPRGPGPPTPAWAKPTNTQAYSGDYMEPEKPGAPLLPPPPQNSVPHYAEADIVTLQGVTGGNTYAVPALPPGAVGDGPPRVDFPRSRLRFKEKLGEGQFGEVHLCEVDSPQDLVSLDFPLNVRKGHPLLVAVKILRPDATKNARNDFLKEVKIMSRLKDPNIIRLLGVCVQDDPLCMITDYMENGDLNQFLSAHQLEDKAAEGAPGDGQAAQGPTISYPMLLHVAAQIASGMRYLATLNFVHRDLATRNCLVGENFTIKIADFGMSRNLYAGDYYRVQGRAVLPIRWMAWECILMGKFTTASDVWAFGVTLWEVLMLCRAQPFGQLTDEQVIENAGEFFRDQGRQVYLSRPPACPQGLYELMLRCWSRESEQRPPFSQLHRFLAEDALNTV

[11] = Cytotoxicity against mesangial cells (unknown origin) expressing Hu-DDR1b assessed as reduction in cell viability at 1 uM incubated for 24 hrs by microscopic analysis; type: cell-based

Structure (SMILES)	IC50 [1] [nM]	CLint scaled at 1 µM [2] [mL/min/kg]	fraction unbound at 4 h [3]	also measured
Cc1ccc(C(=O)Nc2ccc(C)c(C(F)(F)F)c2)cc1NCc1cncc(-c2ccc[nH]2)c1	44.1	–	–	–
Cc1ccc(C(=O)Nc2cccc(C(F)(F)F)c2)cc1NCc1cncc(C(N)=O)c1	4.79	–	–	–
Cc1ccc(C(=O)Nc2cccc(C(F)(F)F)c2)cc1NCc1cccnc1	10.6	–	–	–
Cc1ccc(C(=O)Nc2cccc(C(F)(F)F)c2)cc1Nc1cncc(C(N)=O)c1	–	60	0.018	IC50 [10]: 4.8 nM; Activity [11]: Toxic

Second part, led by results:

IC50 [1] [nM]	CLint scaled at 1 µM [2] [mL/min/kg]	fraction unbound at 4 h [3]	Structure (SMILES)	also measured
6.36	–	–	COc1cncc(CNc2cc(C(=O)Nc3cccc(C(F)(F)F)c3)ccc2C)c1	–
4.56	46	0.016	Cc1ccc(C(=O)Nc2cccc(C(F)(F)F)c2)cc1NCc1cncc(-c2ccn(C)n2)c1	–
11	62	0.001	Cc1ccc(C(=O)Nc2cccc(C(F)(F)F)c2)cc1NCc1cncc(-c2ccc[nH]2)c1	–
7.39	43.2	0.089	Cn1ccc(-c2cncc(CNc3cc(C(=O)Nc4cccc(OC(F)(F)F)c4)ccc3F)c2)n1	clearance [4]: 34.2 mL/min/kg; Tmax [5]: 45 min; half-life [6]: 180 min; Activity [7]: Non-Toxic; Vd [8]: 4.3 L/kg; bioavailability [9]: 12.5%
